ChEMBL document CHEMBL4270639, “Design of PPAR-γ agonist based on algal metabolites and the endogenous ligand 15-deoxy-Δ12, 14-prostaglandin J2” (Eur J Med Chem, 2018)
Active and inactive are the calls of the source. The calls are words filed in the database; no cut-off is given here.

system: not listed separately; assay: Cytotoxicity against rat Ac2F cells assessed as decrease in cell viability after 24 hrs by WST assay; type: cell-based

SMILES	Activity
COC(=O)CC1CCC(=O)C1=CC1CCCCC1 (stereo not drawn)	Non-Toxic

biological target: T1, Peroxisome proliferator-activated receptor gamma (Homo sapiens) (UniProt P37231); assay: Transactivation of full length human FLAG-tagged PPARgamma1 LBD expressed in rat Ac2F cells at 5 to 10 uM after 6 hrs by luciferase reporter gene assay; type: cell-based
T1 sequence (whole entry): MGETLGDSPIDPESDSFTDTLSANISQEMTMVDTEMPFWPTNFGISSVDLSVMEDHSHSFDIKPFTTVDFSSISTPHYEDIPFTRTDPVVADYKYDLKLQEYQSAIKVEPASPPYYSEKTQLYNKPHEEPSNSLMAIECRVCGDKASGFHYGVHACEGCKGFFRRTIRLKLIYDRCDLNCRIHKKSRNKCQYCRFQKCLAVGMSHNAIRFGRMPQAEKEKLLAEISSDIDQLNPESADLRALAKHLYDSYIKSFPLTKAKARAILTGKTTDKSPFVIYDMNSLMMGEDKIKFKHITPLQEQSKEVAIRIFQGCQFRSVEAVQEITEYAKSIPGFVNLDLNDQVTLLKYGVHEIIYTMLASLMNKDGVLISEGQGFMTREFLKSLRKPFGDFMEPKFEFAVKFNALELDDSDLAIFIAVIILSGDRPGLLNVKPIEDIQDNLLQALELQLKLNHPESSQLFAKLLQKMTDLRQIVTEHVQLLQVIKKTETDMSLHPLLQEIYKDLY

Activity	SMILES
inactive	COC(=O)CC1CCC(=O)/C1=C\CCc1ccccc1 (stereo not drawn)
inactive	COC(=O)CC1CCC(=O)C1=CC(C)c1ccccc1 (stereo not drawn)
Active	COC(=O)CC1CCC(=O)C1=CC(OC)OC (stereo not drawn)
inactive	CCCCCCCCC=C1C(=O)CCC1CC(=O)OC (stereo not drawn)
Active	CCOC(=O)C[C@H]1CCC(=O)/C1=C/C1CCCCC1
inactive	COC(=O)CC1CCC(=O)C1CC1CCCCC1 (stereo not drawn)
Active	CCOC(=O)C[C@@H]1CCC(=O)/C1=C/C1CCCCC1
Active	COC(=O)CC1CCC(=O)C1=CCC(C)C (stereo not drawn)
Active	COC(=O)CC1CCC(=O)C1=CC1CCCCC1 (stereo not drawn)
Active	COC(=O)CC1CCC(=O)C1=CC1CCCC1 (stereo not drawn)
Active	CCOC(=O)CC1CCC(=O)/C1=C/C1CCCCC1 (stereo not drawn)
inactive	CCCCCCCC=C1C(=O)CCC1CC(=O)OC (stereo not drawn)
Active	CCCCC(C=C1C(=O)CCC1CC(=O)OC)CC (stereo not drawn)
inactive	CCCCC=C1C(=O)CCC1CC(=O)OC (stereo not drawn)
Active	O=C(O)CC1CCC(=O)/C1=C/C1CCCCC1 (stereo not drawn)
Active	COC(=O)CC1CCC(=O)/C1=C/C1CCCCC1 (stereo not drawn)
inactive	CCC=C1C(=O)CCC1CC(=O)OC (stereo not drawn)
inactive	COC(=O)CC1CCC(=O)C1=CC(c1ccccc1)c1ccccc1 (stereo not drawn)
Active	COC(=O)CC1CCC(=O)C1=CCc1ccccc1 (stereo not drawn)
inactive	CCCCCCC=C1C(=O)CCC1CC(=O)OC (stereo not drawn)
inactive	CCCC=C1C(=O)CCC1CC(=O)OC (stereo not drawn)
inactive	COC(=O)CC1CCC(=O)/C1=C/CCc1ccccc1 (stereo not drawn)
